Where “and” joins values, the source holds several entries; their conditions need not be identical. Equal entries are not always repeated.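 In this assay, cells in 96-well plates receive the compound at five concentrations for 48 hours. Endpoints are linearly interpolated between the surrounding concentrations. Here, GI50 denotes the concentration required for 50% inhibition of growth. TGI: total growth inhibition.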
How the values were obtained:
Assay in all cases: NCI anticancer screen, dose series, 48 h
NCI-H226 lung = system: NCI-H226 lung
HCT-116 colon = system: HCT-116 colon
BT-549 breast = system: BT-549 breast
DU-145 prostate = system: DU-145 prostate
RPMI-8226 leukemia = system: RPMI-8226 leukemia
SNB-19 CNS = system: SNB-19 CNS
MALME-3M melanoma = system: MALME-3M melanoma
HOP-92 NSCLC = system: HOP-92 NSCLC
HOP-62 NSCLC = system: HOP-62 NSCLC
OVCAR-5 ovarian = system: OVCAR-5 ovarian

Row | Compound | GI50 (NCI-H226 lung) | TGI (NCI-H226 lung) | GI50 (HCT-116 colon) | TGI (HCT-116 colon) | GI50 (BT-549 breast) | TGI (BT-549 breast) | GI50 (DU-145 prostate) | TGI (DU-145 prostate) | GI50 (RPMI-8226 leukemia) | TGI (RPMI-8226 leukemia) | GI50 (SNB-19 CNS) | TGI (SNB-19 CNS) | GI50 (MALME-3M melanoma) | TGI (MALME-3M melanoma) | GI50 (HOP-92 NSCLC) | TGI (HOP-92 NSCLC) | GI50 (HOP-62 NSCLC) | TGI (HOP-62 NSCLC) | GI50 (OVCAR-5 ovarian) | TGI (OVCAR-5 ovarian)
1 | CC1CCCc2c1nn(C(=O)/C=C(\N)c1ccccc1)c2N (stereo not drawn) | 16.5 µM | > 100 µM | 5.55 µM | 26.3 µM | 24.3 µM | 93.7 µM | 14.5 µM | > 100 µM | 9.13 µM | > 100 µM | 25.2 µM | > 100 µM | 9.4 µM | > 100 µM | 10.3 µM | 95.7 µM | 8.49 µM | > 100 µM | 31 µM | > 100 µM
2 | O=S(=O)(CCOCc1ccc(-c2ccc3ncnc(Nc4ccc(OCc5cccc(F)c5)c(Cl)c4)c3c2)o1)c1ccccc1 | > 25 µM | > 25 µM | > 25 µM | > 25 µM | > 25 µM | > 25 µM | > 25 µM | > 25 µM | > 25 µM | > 25 µM | > 25 µM | > 25 µM | > 25 µM | > 25 µM | > 25 µM | > 25 µM | > 25 µM | > 25 µM | > 25 µM | > 25 µM
3 | O=C(/C=C/c1ccccc1)CC(c1ccccc1)N1CCOCC1 (stereo not drawn) | 5.39 µM | 24.2 µM | 1.15 µM | 2.37 µM | 1.86 µM | 3.62 µM | 3.49 µM | 10.9 µM | 1.98 µM | 5.21 µM | 9.8 µM | 21.9 µM | 4.4 µM | 19.9 µM | 3.59 µM | 18.3 µM | 3.25 µM | 11.9 µM | 9.79 µM | 22.1 µM
4 | Cc1ccc2c(c1)Sc1ccc(N=NN(C)C)cc1N2C | – | > 100 µM | – | > 100 µM | – | > 100 µM | – | > 100 µM | – | > 100 µM | – | > 100 µM | – | > 100 µM | – | > 100 µM | – | > 100 µM | – | > 100 µM
5 | CCN(CC)CCNC(=O)c1c(C)[nH]c(/C=C2\C(=O)Nc3ccc(F)cc32)c1C | 5.22 µM and 5.72 µM and 8.46 µM | > 10 µM and 20 µM and 23.4 µM | 1.32 µM and 1.38 µM and 1.16 µM | 5.25 µM and 3.85 µM and 3.09 µM | 4.84 µM and 3.32 µM and 3.67 µM | > 10 µM and 6.12 µM and 12.6 µM | 3.73 µM and 2.83 µM and 2.19 µM | > 10 µM and 20 µM and 15.5 µM | 2.93 µM and 4.58 µM and 1.46 µM | > 10 µM and 10.9 µM and 5.31 µM | > 10 µM and 5.36 µM and 11.4 µM | > 10 µM and 16.3 µM and 25.6 µM | 1.87 µM and 2.18 µM and 1.16 µM | 6.55 µM and 5.1 µM and 2.91 µM | 0.831 µM and 0.439 µM | 9.01 µM and 3.05 µM | 5.27 µM and 2.42 µM and 2.64 µM | > 10 µM and 5.94 µM and 15.3 µM | 4.1 µM and 2.35 µM and 3.57 µM | > 10 µM and 8.72 µM and 18.1 µM
6 | CC1(C)CC[C@H](C2=CC(=O)c3c(O)ccc(O)c3C2=O)O1 | 5.01 µM and 1.79 µM and 0.611 µM | – | 1.08 µM and 0.344 µM and 0.205 µM | 2.57 µM and 1.3 µM and 0.579 µM | 0.963 µM and 0.358 µM | 2.19 µM and 1.13 µM | – | 6.28 µM and 4.38 µM | 1.42 µM and 0.278 µM and 0.398 µM | 5.13 µM and 0.992 µM and 2.2 µM | – | – | 1.15 µM and 1.26 µM and 0.201 µM | 2.76 µM and 2.53 µM and 0.471 µM | 1.75 µM and 1.14 µM and 0.263 µM | 3.39 µM and 2.5 µM and 0.725 µM | – | 9.96 µM and 6.57 µM | 4.43 µM and 2 µM and 1.91 µM | 8.24 µM and 3.56 µM and 3.57 µM
7 | Cc1ncc(C(=O)Nc2ccc(CN3CCN(C)CC3)c(C(F)(F)F)c2)cc1C#Cc1cnc(NC2CC2)c2ncccc12 | 2.1 µM | 6.46 µM | 0.578 µM | 1.07 µM | 4.28 µM | 8.56 µM | 0.65 µM | 1.22 µM | 0.621 µM | 1.62 µM | 0.713 µM | 1.32 µM | 0.57 µM | 1.15 µM | 0.682 µM | 2.08 µM | 1.41 µM | 3.06 µM | 0.668 µM | 1.32 µM
8 | O=S1(=O)NCCCN1CCNc1nccc(-c2c(-c3cccc(O)c3)nc3sccn23)n1 | 18.9 µM | 73.9 µM | 5.26 µM | 38.4 µM | 24.3 µM | > 100 µM | 15.9 µM | > 100 µM | 35.9 µM | > 87.5 µM | > 92.5 µM | > 100 µM | 0.108 µM | 3.26 µM | 27.3 µM | > 93.5 µM | 42.3 µM | > 100 µM | 49.8 µM | > 100 µM
9 | NC(=O)C1(N2CCCCC2)CCN(CCCC(=O)c2ccc(F)cc2)CC1 | 2.34 µM | 8.81 µM | 0.777 µM | > 100 µM | 0.0443 µM | 14.1 µM | 2.83 µM | > 25.6 µM | 0.208 µM | > 100 µM | 2.86 µM | > 100 µM | 0.264 µM | > 100 µM | 0.17 µM | 51.4 µM | 3.41 µM | > 100 µM | 6.96 µM | > 100 µM
10 | COc1ccc(CC(C)C(C)Cc2ccc(OC)c(OC)c2)cc1OC (stereo not drawn) | 908 µM | > 1400 µM | 1280 µM | > 1400 µM | > 1400 µM | > 1400 µM | > 1400 µM | > 1400 µM | 96.7 µM | > 1400 µM | > 1400 µM | > 1400 µM | > 1400 µM | > 1400 µM | 235 µM | > 1400 µM | 750 µM | > 1400 µM | > 1400 µM | > 1400 µM
11 | CNC(=O)c1cc2c(Oc3ccc(NC(=O)C4(C(=O)Nc5ccc(F)cc5)CC4)cc3)ccnc2cc1OC | 2.47 µM | 10.7 µM | 3.23 µM | 14.2 µM | 3.01 µM | 9.6 µM | 4.06 µM | > 100 µM | 2.6 µM | 55.9 µM | 8.02 µM | > 100 µM | 1.66 µM | 9.45 µM | 1.03 µM | 4.75 µM | 2.67 µM | > 100 µM | 3.17 µM | > 100 µM
12 | COc1ccc(/C=C2/CCc3cc4ccc(OC)cc4[o+]c32)c(O)c1 | 12.3 µM | 25.7 µM | – | – | 12.1 µM | 31.7 µM | 8.15 µM | 20.5 µM | 3.17 µM | 12.9 µM | 8.48 µM | 25.6 µM | 3.08 µM | 11.7 µM | 11.7 µM | 29.1 µM | 13.1 µM | 28 µM | 17.2 µM | 40.3 µM

— PubChem BioAssay (NCI)
